Measurements reported in US20180171411A1, “GFRalpha1 AS A BIOMARKER FOR CISPLATIN-INDUCED CHEMORESISTANCE AND METASTASIS” (THE BOARD OF REGENTS OF THE UNIVERSITY OF TEXAS SYSTEM, priority 2015, published 2018).

B1: GDNF: glial cell line-derived neurotrophic factor, the major ligand of GFRα1 (protein, UniProt P39905 78-211, looked up)
Glial cell line-derived …: SPDKQMAVLPRRERNRQAAAANPENSRGKGRRGQRGKNRGCVLTAIHLNVTDLGLGYETKEELIFRYCSGSCDAAETTYDKILKNLSRNRRLVSDKVGQACCRPIAFDDDLSFLDDNLVYHILRKHSAKRCGCI

How the values were obtained:
Assay type in all cases: cell-based, human
[1] = test system: GFRα1 expression in MG-63 and U-2 OS cells; assay: Immunoblot of GFRα1 expression after chemotherapeutic agents; settings: doxorubicin 5 μM, cisplatin 20 μM, methotrexate 1 mM, 24 hr
Description: FIG. 1. Cisplatin induces GFRα1 expression in osteosarcoma cells. (a-c) Immunoblot analysis of osteosarcoma cell lysates with antibodies specific for GFRα1 and β-actin. (a) MG-63 and U-2 OS cells were treated with doxorubicin (5 μM), cisplatin (20 μM), or methotrexate (1 mM) for 24 hr. Immunoblot analysis of GFRα1 (left) and quantification of GFRα1 expression (right) after treatment of chemotherapeutic agents. (b) MG-63 and U-2 OS cells were treated with different concentrations of cisplatin for 24 hr. (c) MG-63 and U-2 OS cells were treated with cisplatin (20 μM) and collected at the indicated time. (d and e) Quantitative real-time PCR of GFRα1 mRNA expression after cisplatin treatment. Representative images (top) and quantitative analysis (bottom) of GFRα1 mRNA expression. The values are presented as a mean±s.d.m (n=3). ** denotes p<0.05 by t-test. (d) MG-63 and U-2 OS cells were treated with different concentrations of cisplatin for 24 hr. (e) MG-63 and U-2 OS cells were treated with cisplatin (20 μM) and collected at the indicated time.
(§1) Immunoblotting. Cells were washed with PBS and lysed in RIPA Buffer (Pierce, Rockford, Ill.). The protein content was determined using a dye-binding microassay (Bio-Rad, Hercules, Calif.), and 10-50 μg protein per lane was electrophoresed on 4-12% SDS polyacrylamide gels. Proteins were blotted onto Hybond ECL membranes (Amersham Pharmacia Biotech, Piscataway, N.J.). Two protein ladders were used for molecular weight determination (GenDEPOT, Barker, Tex.). The blotted proteins were detected using an enhanced chemiluminescence detection system (iNtRON, Seoul, Korea). Data were quantified and analyzed with Image-J software.

[2] = test system: APE1 expression in osteosarcoma cells; assay: Immunoblot of APE1 expression after cisplatin; settings: different concentrations of cisplatin, 24 h
Description: FIG. 10. GFRα1-mediated chemoresistance of osteosarcoma cells is independent of APE and RET signaling. (a) Immunoblot analysis of MG-63 cell lysates with antibodies specific for APE, RET and β-actin. MG-63 and U-2 OS cells were treated with different concentrations of cisplatin for 24 h. The cell lysates of GDNF-treated MIA PaCa-2 were used as positive controls for APE and RET expression.
as §1

MG-63 cells = assay: WST-1 cell viability of MG-63 cells; settings: GDNF 50 ng/ml, 24 h
Description: FIG. 4. GFRα1 regulates autophagy by Src/AMPK signaling in osteosarcoma cells. (a-b) Immunoblot analysis of osteosarcoma cell lysates with antibodies specific for GFRα1, p-Src, Src, p-AMPK, AMPK, p-mTOR, mTOR, p-p70 S6Kinase, Beclin 1, HMGB1, LC3, and β-actin. (a) MG-63 and cells were treated with cisplatin (20 μM) for 24 hr. (b) Control and GFRα1-deficient MG-63 cells were treated with cisplatin (20 μM) for 24 hr. (c-e) Immunoblot analysis of osteosarcoma cell lysates with antibodies specific for GFRα1, p-Src, Src, p-AMPK, AMPK, LC3, and β-actin. (c) Control and Src-deficient MG-63 cells were treated with cisplatin (20 μM) for 24 hr. […] Cell viability was measured using the WST-1 assay. […] Cell viability was measured using the WST-1 assay. […]
FIG. 7. […] (a) Quantitative real-time PCR of GDNF mRNA expression after cisplatin treatment. […] (b-d) Cell viability was measured using the WST-1 assay. […] (f) Quantitative analysis of the number of yellow puncta and the number of RFP-LC3 puncta in the combined images of Control and GFRα1-overexpressing MG-63 cells treated with GDNF. […]
Cell viability assays. […] Cell viability was determined by measuring the absorbance after adding WST-1. The spectrophotometric absorbance of the samples was measured using an Ultra Multifunctional Microplate Reader (Tecan, Durham, N.C.) at 450 nm. […]

Molecule	level of GFRα1 expression [1]	level of APE1 expression [2]	cell proliferation of MG-63 cells (MG-63 cells)
N.N.[Cl][Pt][Cl] [cisplatin, Cis-Diamineplatinum(II) dichloride]	significantly increased	not affected	
B1			no effect
